Reference: ChEMBL document CHEMBL5038658, “Structure-Activity Relationship of 3-Methylcytidine-5'-α,β-methylenediphosphates as CD73 Inhibitors” (J Med Chem, 2022)
Calls of active or inactive are those of the source. No cut-off for these calls is given here.

What was measured:
[1] = molecular target: T1, 5'-nucleotidase (Homo sapiens, UniProt P21589); assay: Inhibition of human soluble CD73 assessed as inhibition constant
[2] = molecular target: T1, 5'-nucleotidase; assay: Inhibition of 5'-Nucleotidase activity in human HN-SCC cells assessed as reduction in tumor CD73 catalytic activity incubated for 45 mins in presence of Pb(NO3)2 by […] based assay; assay type: cell-based; details: dose 50-250 nM
[3] = molecular target: T1, 5'-nucleotidase; assay: Inhibition of 5'-Nucleotidase activity in human tonsils assessed as reduction in CD73 catalytic activity in tonsils incubated for 45 mins in presence of Pb(NO3)2 by […] based assay; assay type: tissue-based; details: Tonsil, dose 50-250 nM
[4] = molecular target: T1, 5'-nucleotidase; assay: Inhibition of human soluble CD73 at 0.03 to 50000 nM relative to control; details: dose 0.03-50000 nM

T1 sequence (P21589 whole entry): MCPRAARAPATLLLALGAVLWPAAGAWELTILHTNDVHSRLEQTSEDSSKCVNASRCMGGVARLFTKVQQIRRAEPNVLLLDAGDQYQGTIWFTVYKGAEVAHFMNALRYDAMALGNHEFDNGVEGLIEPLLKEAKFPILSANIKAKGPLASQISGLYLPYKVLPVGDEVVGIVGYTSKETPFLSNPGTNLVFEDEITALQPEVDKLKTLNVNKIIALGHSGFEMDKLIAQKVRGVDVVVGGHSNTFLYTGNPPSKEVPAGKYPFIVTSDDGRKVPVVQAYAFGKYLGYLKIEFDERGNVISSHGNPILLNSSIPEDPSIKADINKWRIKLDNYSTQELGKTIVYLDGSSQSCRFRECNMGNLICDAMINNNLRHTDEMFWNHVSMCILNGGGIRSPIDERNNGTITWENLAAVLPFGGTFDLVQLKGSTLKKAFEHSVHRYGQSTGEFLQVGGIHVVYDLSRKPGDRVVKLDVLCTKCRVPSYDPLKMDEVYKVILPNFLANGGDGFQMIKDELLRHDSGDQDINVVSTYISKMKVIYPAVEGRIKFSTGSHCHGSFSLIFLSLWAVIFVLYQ

Row | SMILES | Ki [1] | other results
1 | Nc1ncnc2c1ncn2[C@@H]1O[C@H](COP(=O)(O)CP(=O)(O)O)[C@@H](O)[C@H]1O |  | inhibition [2]: inactive; inhibition [3]: inactive
2 | Cn1c(=O)n([C@@H]2O[C@H](COP(=O)(O)CP(=O)(O)O)[C@@H](O)[C@H]2O)cc/c1=N/OCc1ccccc1Cl | 1.63 nM | 
3 | Cn1c(=O)n([C@@H]2O[C@H](COP(=O)(O)CP(=O)(O)O)[C@@H](O)[C@H]2O)cc/c1=N/OCc1ccc(C(=O)O)cc1 | 14.1 nM | 
4 | CCOC(=O)CCNC(=O)c1ccc(CO/N=c2/ccn([C@@H]3O[C@H](COP(=O)(O)CP(=O)(O)O)[C@@H](O)[C@H]3O)c(=O)n2C)cc1 | 2.51 nM | 
5 | CCc1ccc(CO/N=c2/ccn([C@@H]3O[C@H](COP(=O)(O)CP(=O)(O)O)[C@@H](O)[C@H]3O)c(=O)n2C)cc1 | 3.5 nM | 
6 | Cn1c(=O)n([C@@H]2O[C@H](COP(=O)(O)CP(=O)(O)O)[C@@H](O)[C@H]2O)cc/c1=N/OCc1ccc(C(F)(F)F)cc1 | 1.08 nM | 
7 | Cn1c(=O)n([C@@H]2O[C@H](COP(=O)(O)CP(=O)(O)O)[C@@H](O)[C@H]2O)cc/c1=N/OCc1cccc(C(F)(F)F)c1 | 1.27 nM | 
8 | Cn1c(=O)n([C@@H]2O[C@H](COP(=O)(O)CP(=O)(O)O)[C@@H](O)[C@H]2O)cc/c1=N/OCc1ccc(C(=O)NCCC(=O)O)cc1 | 2.61 nM | 
9 | Cn1c(=O)n([C@@H]2O[C@H](COP(=O)(O)CP(=O)(O)O)[C@@H](O)[C@H]2O)cc/c1=N/OCc1ccc(S(F)(F)(F)(F)F)cc1 | 0.511 nM | inhibition [2]: Dose-Dependent Effect; inhibition [3]: Dose-Dependent Effect
10 | Cn1c(=O)n([C@@H]2O[C@H](COP(=O)(O)CP(=O)(O)O)[C@@H](O)[C@H]2O)cc/c1=N/OCc1ccc(I)cc1 | 0.436 nM | inhibition [2]: Dose-Dependent Effect; inhibition [3]: Dose-Dependent Effect

More lines, main results first:

Row | Ki [1] | SMILES | other results
11 | 0.848 nM | COC(=O)c1ccc(CO/N=c2/ccn([C@@H]3O[C@H](COP(=O)(O)CP(=O)(O)O)[C@@H](O)[C@H]3O)c(=O)n2C)cc1 | 
12 | 71.5 nM | Cn1c(=O)n([C@@H]2O[C@H](COP(=O)(O)CP(=O)(O)O)[C@@H](O)[C@H]2O)cc/c1=N/C(=O)NCc1ccccc1 | 
13 | 0.441 nM | Cn1c(=O)n([C@@H]2O[C@H](COP(=O)(O)CP(=O)(O)O)[C@@H](O)[C@H]2O)cc/c1=N/OCc1ccc(Br)cc1 | 
14 | 1.76 nM | Cn1c(=O)n([C@@H]2O[C@H](COP(=O)(O)CP(=O)(O)O)[C@@H](O)[C@H]2O)cc/c1=N/OCc1ccc(C(N)=O)cc1 | 
15 | 0.894 nM | Cc1ccc(CO/N=c2/ccn([C@@H]3O[C@H](COP(=O)(O)CP(=O)(O)O)[C@@H](O)[C@H]3O)c(=O)n2C)cc1 | 
16 | 1.14 nM | Cn1c(=O)n([C@@H]2O[C@H](COP(=O)(O)CP(=O)(O)O)[C@@H](O)[C@H]2O)cc/c1=N/OCc1ccc(F)cc1 | 
17 | 2540 nM | O=c1[nH]c(=O)n([C@@H]2O[C@H](COP(=O)(O)CP(=O)(O)O)[C@@H](O)[C@H]2O)cc1F | 
18 | 1.78 nM | Cn1c(=O)n([C@@H]2O[C@H](COP(=O)(O)CP(=O)(O)O)[C@@H](O)[C@H]2O)cc/c1=N/OCc1ccc(C(=O)NCCCCN)cc1 | 
19 | > 50000 nM | O=c1ccn([C@H]2[C@H](O)[C@H](O)[C@]3(COP(=O)(O)CP(=O)(O)O)C[C@H]23)c(=O)[nH]1 | inhibition [4]: 28%
20 | 0.626 nM | Cn1c(=O)n([C@@H]2O[C@H](COP(=O)(O)CP(=O)(O)O)[C@@H](O)[C@H]2O)cc/c1=N/OCc1ccc(C(=O)NCCN)cc1 | 
21 | 1.58 nM | Cn1c(=O)n([C@@H]2O[C@H](COP(=O)(O)CP(=O)(O)O)[C@@H](O)[C@H]2O)cc/c1=N/OCc1cccc(Cl)c1 | 
22 | 59.2 nM | Cn1c(=O)n([C@H]2[C@H](O)[C@H](O)[C@]3(COP(=O)(O)CP(=O)(O)O)C[C@H]23)cc/c1=N/OCc1ccc(Cl)cc1 | 
